Data published in publication PMC6509344, “Novel CMKLR1 Inhibitors for Application in Demyelinating Disease” (Scientific Reports, 2019).

Assays:
[1] = Repeat dosing toxicity, 14 days; details: C57BL/6, mouse, in vivo, po; repeated dosing p.o. for up to 14 days; read-out: no-observable-adverse-effect-level (NOAEL)
Description: Mouse survival was monitored and body weight was measured daily for the length of the study. On day 14 the mice were euthanized and the wet weight for the following tissues: kidney, brain, spleen, liver, heart, and lung, was recorded.

CYP3A4 [2] = molecular target: T1, CYP3A4 (Homo sapiens, UniProt P08684); test: Cyp enzyme inhibition in human liver microsomes; assay type: in vitro ADME
T1 construct: tissue Cyprotex/Evotec AG; host or cells: human liver microsomes

[3] = system: Salmonella typhimurium (TA100); test: Ames test for genotoxicity (AMES-MOD ISO); details: concentrations up to at least 10 uM
Description: Ames test was completed using the AMES-MOD ISO 96 well format assay, Version 1.1 (Environmental Bio-Detection Products Inc.) according to manufacturer’s instructions. In brief, Salmonella typhimurium (TA100) bacterial strain was exposed to the indicated doses of sodium azide (positive control) or α-NETA solubilized in DMSO (1% DMSO/well, 48 wells/dose completed in triplicate). After 2 h incubation the cells were diluted and cultured in media lacking histidine but containing pH indicator to identify revertant cell growth. After 3 days of incubation at 37 °C, the number of wells containing revertant cells was counted per dose.

Cyp enzymes = test: Time-dependent (mechanism-based) Cyp inhibition; assay type: in vitro ADME, human; details: not shown
Description: Human liver microsomes were pre-incubated with 7 concentrations (0.1–100 mM, duplicate wells) of α-NETA for 30 min.

Cyp2C9 = molecular target: T2, Cyp2C9 (Homo sapiens, UniProt P11712); test: Cyp enzyme inhibition in human liver microsomes; assay type: in vitro ADME; details: 30 min pre-incubation
T2 construct: tissue Cyprotex/Evotec AG; host or cells: human liver microsomes

Cyp2B6 = molecular target: T3, Cyp2B6 (Homo sapiens, UniProt P20813); test: Cyp enzyme inhibition in human liver microsomes; assay type: in vitro ADME; details: 30 min pre-incubation
T3 construct: tissue Cyprotex/Evotec AG; host or cells: human liver microsomes
T3 sequence (P20813 1-491): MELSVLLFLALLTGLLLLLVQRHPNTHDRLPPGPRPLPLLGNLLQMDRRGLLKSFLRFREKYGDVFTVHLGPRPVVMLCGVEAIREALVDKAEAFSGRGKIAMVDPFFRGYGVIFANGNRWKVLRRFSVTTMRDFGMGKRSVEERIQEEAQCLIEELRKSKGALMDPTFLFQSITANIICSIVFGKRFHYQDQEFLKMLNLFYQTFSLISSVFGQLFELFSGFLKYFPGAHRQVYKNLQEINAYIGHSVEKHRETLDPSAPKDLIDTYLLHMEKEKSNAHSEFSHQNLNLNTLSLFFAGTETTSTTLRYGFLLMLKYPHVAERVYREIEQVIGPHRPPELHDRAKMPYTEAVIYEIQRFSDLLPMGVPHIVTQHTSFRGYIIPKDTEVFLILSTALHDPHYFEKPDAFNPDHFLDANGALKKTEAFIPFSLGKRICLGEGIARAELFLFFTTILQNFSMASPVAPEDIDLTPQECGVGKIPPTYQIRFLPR

Cyp1A2 = system: Cyp1A2; parameters: method as in PubChem BioAssay ID 1476; details: ref PubChem BioAssay ID 1476; cited from earlier work
Cyp3A4 [4] = system: Cyp3A4; parameters: method as in PMID 25437209; details: substrate luciferin-6′ phenylpiperazinylyl; PubChem; cited from earlier work
Cyp2C19 = molecular target: T4, Cyp2C19 (Homo sapiens, UniProt P33261); test: Cyp enzyme inhibition in human liver microsomes; assay type: in vitro ADME; details: 30 min pre-incubation
T4 construct: tissue Cyprotex/Evotec AG; host or cells: human liver microsomes

[5] = system: Pregnane X receptor (PXR); test: Cyp induction: PXR luciferase reporter in human hepatoma cell line; assay type: cell-based; details: concentrations up to 50 uM
Description: Pregnane X receptor (PXR) activation was used as a marker of Cyp induction. An engineered human hepatoma cell line with a PXR luciferase reporter was incubated with the indicated concentrations of α-NETA, Rifampicin (positive control), or DMSO (negative control), and luciferase activity assessed (Cyprotex/Evotec AG).

Cyp2D6 = system: Cyp2D6; parameters: method as in PubChem BioAssay ID 1461; details: ref PubChem BioAssay ID 1461; cited from earlier work
Cyp2C8 = molecular target: T5, Cyp2C8 (Homo sapiens, UniProt P10632); test: Cyp enzyme inhibition in human liver microsomes; assay type: in vitro ADME; details: 30 min pre-incubation
T5 construct: tissue Cyprotex/Evotec AG; host or cells: human liver microsomes
T5 sequence (P10632 1-490): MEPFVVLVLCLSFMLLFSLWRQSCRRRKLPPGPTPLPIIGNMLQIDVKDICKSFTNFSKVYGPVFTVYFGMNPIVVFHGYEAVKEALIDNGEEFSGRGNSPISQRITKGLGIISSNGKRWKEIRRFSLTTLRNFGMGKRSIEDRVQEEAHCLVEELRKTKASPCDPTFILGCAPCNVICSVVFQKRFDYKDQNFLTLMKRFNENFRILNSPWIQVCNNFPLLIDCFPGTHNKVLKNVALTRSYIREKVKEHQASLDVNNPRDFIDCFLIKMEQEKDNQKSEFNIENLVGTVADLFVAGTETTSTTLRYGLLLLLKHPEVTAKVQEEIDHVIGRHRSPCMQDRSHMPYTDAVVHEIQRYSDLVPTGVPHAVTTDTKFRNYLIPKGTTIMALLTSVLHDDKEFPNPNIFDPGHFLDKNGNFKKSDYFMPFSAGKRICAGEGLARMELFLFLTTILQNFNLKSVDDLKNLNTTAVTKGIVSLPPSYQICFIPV

(hu)CMKLR1 L1.2 cells = test: Chemotaxis assay toward huChemerin; assay type: cell-based, human; details: Homo sapiens; (hu)CMKLR1 L1.2 cells migrating toward huChemerin, 2 h; read-out: Chemotaxis IC50 mean ± SEM (n)
Description: (hu)CMKLR1 transfectants (generated in L1.2 pre-B cell lymphoma cells) were grown in RPMI 1640 (Corning) supplemented with L-glutamine, penicillin-streptomycin, and 10% BCS and G418-sulfate (KSE Scientific). DiscoverX PathHunter® CHO-K1 CMKLR1 β-Arrestin Cells were grown in RPMI lacking phenol red (Gibco, Life Technologies), supplemented with L-glutamine, penicillin-streptomycin, sodium pyruvate, non-essential amino acid, BCS, hygromycin, and G418-sulfate.
(hu)CMKLR1 L1.2 cells at 1 × 10^6 cell/ml were treated with 5 mM sodium butyrate (Sigma) overnight to induce hCMKLR1 expression. The next day, cells were washed in migration media (RPMI + 0.5%BSA) and resuspended at 1.5–3 × 10^6 cell/ml. Cells were pre-incubated at RT for 10 min with various concentrations of α-NETA or test compounds (α-NETA and test compounds were reconstituted in DMSO; final DMSO concentration in each well was 0.1%). 100 ul of cells were added to the upper chamber of a 24-well transwell plate (5 um pore size, Costar). Cells were allowed to migrate toward huChemerin ([…] in migration media, bottom chamber) for 2 h, 37 °C, 5% CO2. The number of migrated cells was quantified by flow cytometry (BD LSR2), and live cells were distinguished based on FSC × SSC properties. The background for this assay was typically low with 0 cells migrating to the buffer alone. For each independent trial, data was normalized to the maximum migration per compound tested and an IC50 value was generated using GraphPad Prism software. The average IC50 value for n independent trials (as specified in the table) is reported.

T1 sequence (P08684 whole entry): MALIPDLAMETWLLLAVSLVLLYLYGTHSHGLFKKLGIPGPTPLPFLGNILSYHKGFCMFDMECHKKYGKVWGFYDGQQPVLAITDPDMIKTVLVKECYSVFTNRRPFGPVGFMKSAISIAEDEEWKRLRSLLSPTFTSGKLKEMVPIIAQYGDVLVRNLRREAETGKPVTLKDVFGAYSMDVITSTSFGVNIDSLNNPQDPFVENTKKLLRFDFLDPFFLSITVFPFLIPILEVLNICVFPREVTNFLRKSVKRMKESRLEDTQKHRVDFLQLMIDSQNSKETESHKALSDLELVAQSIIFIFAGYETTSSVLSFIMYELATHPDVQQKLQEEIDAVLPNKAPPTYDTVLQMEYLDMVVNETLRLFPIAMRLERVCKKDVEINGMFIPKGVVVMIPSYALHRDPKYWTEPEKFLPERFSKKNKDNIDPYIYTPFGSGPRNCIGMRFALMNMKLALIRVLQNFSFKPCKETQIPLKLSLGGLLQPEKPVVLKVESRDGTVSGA
T2 sequence (P11712 whole entry): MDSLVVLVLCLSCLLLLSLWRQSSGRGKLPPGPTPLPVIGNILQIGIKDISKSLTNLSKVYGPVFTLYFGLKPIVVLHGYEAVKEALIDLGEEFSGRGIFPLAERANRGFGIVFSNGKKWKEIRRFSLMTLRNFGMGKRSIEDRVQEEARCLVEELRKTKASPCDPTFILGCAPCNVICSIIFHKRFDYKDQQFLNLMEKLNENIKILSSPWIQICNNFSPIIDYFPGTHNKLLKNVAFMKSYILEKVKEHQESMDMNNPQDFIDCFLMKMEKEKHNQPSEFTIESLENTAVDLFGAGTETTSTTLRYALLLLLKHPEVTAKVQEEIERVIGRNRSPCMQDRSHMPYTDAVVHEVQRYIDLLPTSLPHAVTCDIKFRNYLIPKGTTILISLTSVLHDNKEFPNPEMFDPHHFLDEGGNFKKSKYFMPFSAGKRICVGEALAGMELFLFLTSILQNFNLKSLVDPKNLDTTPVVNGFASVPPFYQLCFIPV
T4 sequence (P33261 whole entry): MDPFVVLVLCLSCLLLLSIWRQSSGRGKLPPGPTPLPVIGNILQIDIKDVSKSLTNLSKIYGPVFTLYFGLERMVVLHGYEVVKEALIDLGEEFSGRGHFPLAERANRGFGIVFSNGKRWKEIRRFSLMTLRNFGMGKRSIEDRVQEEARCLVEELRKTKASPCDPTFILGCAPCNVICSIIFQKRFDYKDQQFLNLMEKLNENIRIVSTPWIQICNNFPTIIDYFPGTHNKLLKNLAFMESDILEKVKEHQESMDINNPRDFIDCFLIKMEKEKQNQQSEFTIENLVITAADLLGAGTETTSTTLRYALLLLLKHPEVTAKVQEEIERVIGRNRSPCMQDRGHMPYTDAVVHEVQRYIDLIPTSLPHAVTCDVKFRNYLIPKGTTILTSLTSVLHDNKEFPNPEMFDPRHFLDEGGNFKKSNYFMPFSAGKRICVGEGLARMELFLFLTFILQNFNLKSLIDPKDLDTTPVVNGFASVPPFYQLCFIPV

**Q.** With C[N+](C)(C)CCC(=O)c1cccc2ccccc12.[I-] [α-NETA, 2-(α-naphthoyl) ethyltrimethylammonium iodide] as the compound, how does the NOAEL at 14 days [1] read?
**A.** ≥ 300 mg/kg

**Q.** What about the IC50 (CYP3A4 [2]; human, liver microsomes, probe midazolam, substrate Midazolam) of the same compound?
**A.** 7.4 µM

**Q.** What about the IC50 (CYP3A4 [2]; substrate Midazolam) of the same compound?
**A.** 7.5 µM

**Q.** What about the IC50 (CYP3A4 [2]; substrate testosterone) of the same compound?
**A.** 6.9 µM

**Q.** And the “mutagenesis in Ames test (histidine revertants)” value [3]?
**A.** did not induce mutagenesis

**Q.** And the “time-dependent (mechanism-based) Cyp inhibition” value (Cyp enzymes)?
**A.** No time-dependent (mechanism-based) Cyp inhibition was detected

**Q.** And the IC50 (Cyp2C9)?
**A.** 14.6 µM

**Q.** What about the IC50 (Cyp2B6) of the same compound?
**A.** 0.12 µM

**Q.** And the IC50 (Cyp1A2)?
**A.** 8 µM

**Q.** What about the IC50 (Cyp3A4 [4]) of the same compound?
**A.** 0.2 µM

**Q.** What about the IC50 (Cyp2C19) of the same compound?
**A.** 84 µM

**Q.** What about the “PXR activation (marker of Cyp induction)” value [5] of the same compound?
**A.** did not induce substantial PXR activity

**Q.** What about the IC50 (Cyp2D6) of the same compound?
**A.** > 10 µM

**Q.** And the IC50 (Cyp2C8)?
**A.** 1.5 µM

**Q.** And the IC50 ((hu)CMKLR1 L1.2 cells)?
**A.** 37 ± 8.9 µM
